Measured values: patent publication US11413267B2, “Methods and compositions for inhibition of ATR and FANCD2 activation” (priority 2012, dated 2022)

Tests used:
[1] = system: DDR signaling (Chk2 Thr68, Chk1 Ser345 phosphorylation); assay: Immunoblot of DDR signaling after compound alone (no DNA damage); format: cell-based, human
Experimental: Since mitomycin C can induce DDR in many cancers, we investigated what kind of DDR signaling was activated by Protoapigenone (I-1). […] We repeated the benzopyran-4-one derivatives experiment on lung and breast carcinoma cell lines A549 and MDA-MB-231 cells, respectively, and obtained similar results. Consistently, no marked changes in Chk1 and Chk2 phosphorylation signaling were detected even at high doses of either drug for as long as 8 h after drug treatment (FIGS. 3(a) and 3(b)).
Cell lysate preparations, gel electrophoresis, and immunoblotting were performed as previously described (23). The binding of primary antibodies were detected by horseradish peroxidase-coupled secondary antibodies (Jackson ImmunoResearch) followed by enhanced chemiluminescence (ECL) (Millipore). The images of non-saturated bands were captured using a luminescent image analyzer (LAS-4000 mini; Fujifilm). The antibodies used in this study are listed in supplementary materials.

FANCD2 = assay: Immunoblot of FANCD2 monoubiquitination; format: cell-based, human; conditions: cisplatin-treated cells, same doses as Protoapigenone (I-1)
From the text: Understanding the mechanism by which the benzopyran-4-one derivatives compounds cause chromosomal breakages (FIG. 1) and other abnormalities might aid in identifying their targets. We hypothesized that genes with functions associated with DNA damage checkpoints and/or DNA repair might be targeted by benzopyran-4-one derivatives. To test this hypothesis, we assessed the effects of benzopyran-4-one derivatives on DDR induced by H2O2. […] In response to DNA double-strand breaks (DSBs), FANCD2 is known to be monoubiquitinated on K561 (FANCD2-Ub) in an ATR-dependent manner to stimulate repair (Andreassen P R, et al. Genes Dev 2004). […] Collectively, these findings indicate that benzopyran-4-one derivatives can modify ATR signaling after various types of DNA damage.
Inhibition of the checkpoint and repair mechanisms leads to chemosensitization in cancers. […] We further treated individual cells with cisplatin in combination with several varying doses of benzopyran-4-one derivatives, and counted survival colonies to determine their ability to survive after cisplatin-induced damage. […]
Cell lysate preparations, gel electrophoresis, and immunoblotting were performed as previously described (23). The binding of primary antibodies were detected by horseradish peroxidase-coupled secondary antibodies (Jackson ImmunoResearch) followed by enhanced chemiluminescence (ECL) (Millipore). […]

cancer cells = assay: MTT cytotoxicity assay on cancer cells, 48 h; format: cell-based, human; conditions: FIG. 4
MDA-MB-231 cells = assay: In vitro chemosensitization assay (clonogenic survival); format: cell-based, human
From the text: (§1) Inhibition of the checkpoint and repair mechanisms leads to chemosensitization in cancers. […] We further treated individual cells with cisplatin in combination with several varying doses of benzopyran-4-one derivatives, and counted survival colonies to determine their ability to survive after cisplatin-induced damage. […] To investigate the chemosensitization effect of low-dose benzopyran-4-one derivatives in vivo, we established a tumor xenograft in nude mice using human MDA-MB-231 tumor cells, which are considered to be more resistant to cisplatin and are also sensitive to treatment with benzopyran-4-one derivatives, at least as compared to A549 cells (FIGS. 4, 17(a) and 17(b)). […] The pharmacokinetic data of Protoapigenone (I-1) and compound II-1 needs to be compared in future studies to determine the differences in the chemical effects of these 2 compounds in vitro and in vivo.
Please refer to FIGS. 31(a)-31(e), which are the surviving fractions of MDA-MB-231 cells which were co-administered compound II-1 with the DNA damaging agent, i.e. (a) doxorubicin, (b) etoposide, (c) mytomycin C, (d) camptothecin, or (e) taxol. […] Accordingly, a low dose of benzopyran-4-one derivatives can enhance the chemosensitivity of the chemotherapeutic drug.
To evaluate in vitro chemosensitization, cells were seeded in 6-well plates 1 d before the experiment at a density of 100-400 cells/well. The drugs were incubated with the cells for 6 h, after which the medium was replaced with fresh drug-free FBS-containing medium. The colonies became visible and were counted 7-10 d later using 0.1% crystal violet staining following image capture by a CCD camera (LAS-4000 mini; Fujifilm).

[2] = system: MDA-MB-231 tumor xenograft; assay: Human xenograft tumors in nude mice; format: in vivo
From the text: as §1
Human breast cancer MAD-MB-231 cells were harvested from the culture, resuspended in medium without serum at 1×10^8 cells/mL, and 0.1 mL of this suspension was subcutaneously injected into the right flank of female nude mice (BALB/cAnN-Foxn1nu/Crl Narl; purchased from the National Science Council Animal Center, Taiwan). Tumor-injected mice that successfully developed tumors that grew to approximately 50-100 mm^3 in volume were randomly sorted into groups and used for the experiments. […]

host cell = assay: MTT assay of host cell toxicity; format: cell-based; conditions: 1 μM, 6 hours treatment plus 18 hours fresh medium
Experimental: To understand whether or not inhibition of the virus infection is followed by the host cell toxicity caused by the compound treatments, we performed an MTT [3-(4,5-cimethylthiazol-2-yl)-2,5-diphenyl tetrazolium bromide] assay in cells untreated or treated with indicated compounds for 6 hours. After that, the compound is washed out and the MTT assay was tested after an additional 18 hours of fresh culture medium incubation, in a way similar to the protocol shown in FIG. 26. 0.5 mg/mL of MTT contained media was added to cells at the end of the experiment and incubated for 3 hours. Then, the supernatant was removed and the formazone crystals solubilized using 100 μl of DMSO and the absorbance at 570 nm was read using a microplate reader. […] However, the virus inhibition effect of 50-99% is also shown at this dose of Compound II-1.

Compound | Chk2 activation by compound itself ([1]; high dose, no DNA damage (FIGS. 3(a), 3(b))) | FANCD2 monoubiquitination and protein stability (FANCD2) | Cytotoxicity, comparison (cancer cells) | Survival of MDA-MB-231 cells (MDA-MB-231 cells; 2.5 nM to 20.0 nM co-administered with camptothecin) | Survival of MDA-MB-231 cells (MDA-MB-231 cells; 2.5 nM to 20.0 nM co-administered with doxorubicin) | Survival of MDA-MB-231 cells (MDA-MB-231 cells; 2.5 nM to 20.0 nM co-administered with etoposide) | Survival of MDA-MB-231 cells (MDA-MB-231 cells; 2.5 nM to 20.0 nM co-administered with mytomycin C) | Survival of MDA-MB-231 cells (MDA-MB-231 cells; 2.5 nM to 20.0 nM co-administered with taxol) | Tumor inhibitory effect ([2]; 0.2 mg/kg with 2 mg/kg cisplatin, intraperitoneally every 4 d) | Decrease of surviving cells (host cell) | p53 protein accumulation ([1]; HEK293T cells) | Change of putative DDR signaling (phosphorylation of Chk2 Thr68 and Chk1 Ser345) ([1]; HEK293T cells, high doses (10 μM, FIG. 2)) | MAPKAPK2 phosphorylation (p38 MAPK target) ([1]; HEK293T cells, time after exposure) | Cisplatin sensitivity of MDA-MB-231 tumors ([2]; 2 mg/kg (data not shown))
O=C1C=CC(O)(c2cc(=O)c3c(ccc4ccccc43)o2)C=C1 [Compound II-1, 3-(1-hydroxy-4-oxo-cyclohexa-2,5-dienyl)-1H-benzo[f]chromen-1-one] | slightly induces | not only inhibits monoubiquitination of FANCD2 but also affects FANCD2 protein stability | more potent than Protoapigenone (I-1) | not significantly decreased | significantly decreased | significantly decreased | significantly decreased | not significantly decreased | greater than that of cisplatin treatment alone | 5-10% | – | – | – | –
O=C1C=CC(O)(c2cc(=O)c3c(O)cc(O)cc3o2)C=C1 [Compound I-1, Protoapigenone] | – | – | – | – | – | – | – | – | – | – | slight accumulation of the p53 protein | did not induce noticeable changes | phosphorylated starting as early as 2 h | did not affect the cisplatin sensitivity
